# In patent US10799494B2, “Combination of respiratory electron transport chain inhibitors with a cytochrome bd inhibitor” (priority 2015, dated 2020):
# “And” between values parts separate entries of the source, which are not always exact repeats. Equal entries are not always repeated.
# Tests used:
# [1] = test system: Mycobacterium tuberculosis (Mtb) H37Rv; assay: MGIT growth inhibition assay, time to positivity; assay type: cell-based
# HepG2 cell line = assay: Human cell counter screen (HepG2) cellular toxicity
# bovine cytochrome bc1 = bovine cytochrome bc1 (Bos taurus (Bovine), UniProt P00157); assay: Bovine cytochrome bc1 inhibition (cytochrome c reduction, Keilin-Hartree particles); assay type: biochemical
# [2] = target: M. tuberculosis cytochrome bd-I (Mycobacterium tuberculosis, UniProt L7N662); assay type: biochemical
# M. tuberculosis H37Rv = M. tuberculosis H37Rv growth inhibition screen at fixed 5 μM; assay type: cell-based, Mycobacterium tuberculosis; details: Mycobacterium tuberculosis, H37RV; aerobic; 5 μM compound; read-out: Growth of M. tuberculosis H37Rv (aerobic) at 5 μM of [compounds]
# [3] = target: recombinant M. tuberculosis bd-I (Mycobacterium tuberculosis, UniProt L7N662); assay: Steady-state kinetics of quinol:Mtb bd-I activity with artificial quinol substrates; details: for specific catalytic activity: FIG. 1, measured at 283 nm
# Mtb H37Rv = assay: In vitro (replicating) Mtb growth inhibition, microplate Alamar blue assay; assay type: cell-based, Mycobacterium tuberculosis
# [4] = 9/79 vs placebo 2/81, […]; cited from earlier work
# [5] = test system: COc1c(O)c(C)c(CC=C(C)C)c(O)c1OC; assay: cells, lysate or membranes named; details: pH 7.5
# [6] = test system: COc1c(O)c(C)c(C/C=C(\C)CCC=C(C)C)c(O)c1OC; assay: cells, lysate or membranes named; details: pH 7.5
# [7] = Table 6, compounds at 5x IC90, drug free control 11, followed to 74 days
# [8] = Table 8, WDH-2G-6 3 μM, MTC420 5.5 μM, lansoprazole sulphide 26.5 μM, TMC207 250 nM, media control 10
# [9] = Table 7 / FIG. 9, compounds at 5x IC90, 7.5×10^5 Mtb cells per tube, drug free control 8, followed to 80 days
# Sequence of bovine cytochrome bc1 (P00157 whole entry, looked up): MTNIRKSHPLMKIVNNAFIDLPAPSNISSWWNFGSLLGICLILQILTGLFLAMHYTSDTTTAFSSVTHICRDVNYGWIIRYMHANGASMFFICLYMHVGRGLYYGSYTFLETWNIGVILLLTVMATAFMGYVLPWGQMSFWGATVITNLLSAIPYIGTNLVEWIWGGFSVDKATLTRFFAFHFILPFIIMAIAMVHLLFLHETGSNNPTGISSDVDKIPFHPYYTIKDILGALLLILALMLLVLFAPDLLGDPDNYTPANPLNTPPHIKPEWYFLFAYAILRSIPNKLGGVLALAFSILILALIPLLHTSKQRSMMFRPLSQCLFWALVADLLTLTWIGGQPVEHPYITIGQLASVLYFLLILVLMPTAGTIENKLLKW
# Sequence of recombinant M. tuberculosis bd-I (L7N662 1-485): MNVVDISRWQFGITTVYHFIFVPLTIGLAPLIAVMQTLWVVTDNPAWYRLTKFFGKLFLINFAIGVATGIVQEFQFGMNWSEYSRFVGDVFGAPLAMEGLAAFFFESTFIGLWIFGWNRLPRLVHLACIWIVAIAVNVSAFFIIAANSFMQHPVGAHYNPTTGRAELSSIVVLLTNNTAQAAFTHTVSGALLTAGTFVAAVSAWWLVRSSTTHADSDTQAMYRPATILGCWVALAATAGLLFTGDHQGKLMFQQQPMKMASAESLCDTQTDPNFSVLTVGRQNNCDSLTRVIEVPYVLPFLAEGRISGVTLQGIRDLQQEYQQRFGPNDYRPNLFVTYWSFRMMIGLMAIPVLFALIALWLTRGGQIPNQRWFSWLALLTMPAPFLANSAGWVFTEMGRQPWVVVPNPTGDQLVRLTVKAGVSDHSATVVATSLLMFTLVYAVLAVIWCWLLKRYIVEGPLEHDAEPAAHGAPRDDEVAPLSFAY
# Sequence of M. tuberculosis cytochrome bd-I (L7N662 1-485): as above
compound,measurement,setting,value
Cc1ccc2nc(C)c(C(=O)NCc3ccc(Oc4ccc(F)cc4)cc3)n2c1 [AWE 402],Time to Positivity,[1]; [7],15 days
same,Time to Positivity,[1]; [8],13 days
"Cc1c(-c2ccc(Cc3ccccc3)cc2)[nH]c2ccccc2c1=O [CK-2-88, 2-(4-Benzylphenyl)-3-methylquinolin-4(1H)-one]",HepG2,HepG2 cell line,>100 µM
same,IC50,bovine cytochrome bc1,340 nM
same,inhibition @ 1 uM (% of cntls),[2],87.5 % of cntls
same,activity at 5 µM,M. tuberculosis H37Rv,90.5%
"COc1c(O)c(C)c(CC=C(C)C)c(O)c1OC [Compound Q1H2, ubiquinol-1]",specific catalytic activity,[3],5.26 ± 0.52 µmol/min/mg
"COc1c(O)c(C)c(C/C=C(\C)CCC=C(C)C)c(O)c1OC [Compound Q2H2, ubiquinol-2]",specific catalytic activity ± SEM,[3],8.7 ± 2.5 µmol/min/mg
same,specific catalytic activity,[3],8.65 ± 2.5 µmol/min/mg
"NNC(=O)c1ccncc1 [INH, Isoniazid]",Time to Positivity,[1]; [7],No effect at 74 days
same,Time to Positivity,[1]; [9],No effect
"Cc1c(-c2ccc(Cc3ccc(F)cc3)cc2)[nH]c2ccccc2c1=O [LT-9, 2-(4-(4-Fluorobenzyl)phenyl)-3-methylquinolin-4(1H)-one]",HepG2,HepG2 cell line,>50 µM
same,activity at 5 µM,M. tuberculosis H37Rv,34.7%
"Cc1c(OCC(F)(F)F)ccnc1CSc1nc2ccccc2[nH]1 [Lansoprazole sulphide, lansoprazole sulfide]",Time to Positivity,[1]; [8],13 days
same,Time to positivity (TtP),"[1]; lansoprazole sulfide 26.5 μM, CK-2-63 35 μM, drug-free control 10 days",13 days
Cc1c(-c2ccc(N3CCC(F)(F)C3)cc2)[nH]c2cc(F)cc(F)c2c1=O [MTC420],Time to positivity / outgrowth of Mtb in MGITs,"[1]; FIG. 3, repeated 3 times",11 to 13 days
same,Time to Positivity,[1]; [7],18 days
same,Time to Positivity,[1]; [8],13 days
same,IC50,Mtb H37Rv,520 nM
"O=c1cc(-c2ccc(Cc3ccc(OC(F)(F)F)cc3)cc2)[nH]c2ccccc12 [RKA-70, 2-(4-(4-(Trifluoromethoxy)benzyl)phenyl)quinolin-4(1H)-one]",HepG2,HepG2 cell line,>50 µM
same,IC50,bovine cytochrome bc1,310 nM
same,activity at 5 µM,M. tuberculosis H37Rv,100%
CO[C@H]1/C=C/O[C@@]2(C)Oc3c(C)c(O)c4c(O)c(c(/C=N/N5CCN(C)CC5)c(O)c4c3C2=O)NC(=O)/C(C)=C\C=C\[C@H](C)[C@H](O)[C@@H](C)[C@@H](O)[C@@H](C)[C@H](OC(C)=O)[C@@H]1C [Rifampicin],Time to Positivity,[1]; [7],No effect at 74 days
"Cc1c(-c2ccc(-c3ccc(OC(F)(F)F)cc3)nc2)[nH]c2ccccc2c1=O [SL-2-25, 3-Methyl-2-(6-(4-(trifluoromethoxy)phenyl)pyridin-3-yl)quinolin-4(1H)-one]",HepG2,HepG2 cell line,>50 µM
same,IC50,bovine cytochrome bc1,890 nM
same,activity at 5 µM,M. tuberculosis H37Rv,88.9%
"COc1nc2ccc(Br)cc2cc1[C@@H](c1ccccc1)[C@@](O)(CCN(C)C)c1cccc2ccccc12 [TMC 207, bedaquiline]",Time to Positivity,[1]; [9],12 days
same,Time to Positivity,[1]; [8],13 days
same,death in treatment group,[4],11.4%
"Cc1c(-c2cnn(Cc3ccc(OC(F)(F)F)cc3)c2)[nH]c2ccccc2c1=O [WDH-2A-9, 3-Methyl-2-(1-(4-(trifluoromethoxy)benzyl)-1H-pyrazol-4-yl)quinolin-4(1H)-one]",activity at 5 µM,M. tuberculosis H37Rv,97.4%
"CC(C)c1c(-c2cnn(Cc3ccc(OC(F)(F)F)cc3)c2)[nH]c2ccccc2c1=O [WDH-2G-6, 3-Isopropyl-2-(1-(4-(trifluoromethoxy)benzyl)-1H-pyrazol-4-yl)quinolin-4(1H)-one]",Time to Positivity,[1]; [8],10 days
same,inhibition @ 1 uM (% of cntls),[2],81.6 % of cntls
"CCCCCCCCCCc1c(C)c(O)c(OC)c(OC)c1O [dQH2, decylubiquinol]",specific catalytic activity ± SEM,[3],9.0 ± 0.2 µmol/min/mg and 5.1 ± 0.3 µmol/min/mg and 6.2 ± 0.5 µmol/min/mg
same,specific catalytic activity,[3],5.1 ± 0.29 µmol/min/mg
recombinant M. tuberculosis bd-I (Mycobacterium tuberculosis H37Rv),Km,[5],51.55 ± 8.9 µM and 51.6 ± 8.9 µM and 51.8 ± 6.1 µM
same,Km,[6],65.21 ± 15.31 µM and 65.2 ± 15.3 µM
